Measured values published in US20250155433A1, “FLUORESCENT SENSORS FOR DETECTION OF SIDEROPHORES AND OTHER MOLECULES PRODUCED BY BACTERIAL PATHOGENS” (Kansas State University Research Foundation, priority 2021, published 2025).
pKd: −log10 of the molar value. Where a SMILES comes first, the peptide text is derived from it. [ ]: non-standard residue; d: D form. Orn(N5-OH,N5-Ac) = CC(=O)N(O)CCC[C@H](N)C(=O)O

Legend:
[1] = molecular target: T1, EcoIutA (Escherichia coli, UniProt P14542, T573C); experiment: Fluorescence quenching binding to EcoIutA-FM sensor; details: for Binding by IutA: other ferric hydroxamates
T1 construct: expressed in transfected cells; host or cells: E. coli OKN3/OKN13/OKN359/OKN1359 carrying a pITS23 derivative
Protocol: (§1) Fluorescence modifications. For modifications with maleimide fluorophores, we inoculated E. coli strains OKN3, OKN13, OKN359 or OKN1359, harboring plasmids that encoded a Cys mutant LGP, from frozen stocks into LB, grew them overnight and sub-cultured at 1% into iron-deficient MOPS minimal media, with shaking (200 rpm) at 37° C. for 10-12 h, until late exponential phase. After collecting the cells by centrifugation at 7500×g for 15 min, and washing with 50 mM NaHPO4, pH 6.7, we labeled the Cys-mutant LGP with 5 μM FM in 50 mM NaHPO4, pH 6.7 for 15 min at 37° C. FM. We terminated the labeling reactions with 100 μM β-mercaptoethanol. After collecting the fluoresceinated cells by centrifugation at 7500×g for 15 min, and washing with 50 mM NaHPO4, pH 6.7, we re-suspended them in PBS plus 0.2% glucose. We either immediately used the labeled cells in spectroscopic experiments, or rested them on ice (up to 24 h), or added glycerol to 15% and stored them (indefinitely) as 1 mL aliquots at −70° C. In the latter case, after thawing the labeled cells we pelleted them by centrifugation in a microfuge, washed them once with and re-suspended them in PBS containing 0.2% glucose. Lastly, for evaluation of protein expression or the extent of FM-labeling we solubilized aliquots of the cell suspensions with sample buffer, and subjected them to SDS-PAGE. After electrophoresis, we first visualized the fluorescence labeling on a Typhoon 8600 Biomolecular Scanner (GE/Amersham), and then stained the gels with Coomassie blue R (153).
(§2) Fluorescence spectroscopic binding determinations. We observed fluorophore-labeled cells in an SLM AMINCO 8100 fluorescence spectrometer, upgraded with an OLIS operating system and software (OLIS SpectralWorks, OLIS Inc., Bogart, GA), to control its shutters, polarizers and data collection. We also utilized an OLIS Clarity fluorescence spectrometer for fluorescence assays. For binding determinations we deposited 2.5×10^7 labeled cells in a quartz cuvette (final volume, 2 mL) with stirring at 37° C., measured the initial fluorescence (F0), and then added increasing concentrations of an iron complex while monitoring the quenching of fluorescence emissions (F) at 520 nm. We performed each measurement in triplicate and calculated the mean value of F/F0 at each ligand concentration. We plotted 1−F/F0 vs [ligand] and analyzed the data by the 1-site binding model of Grafit 6.0.12 (Erithacus Ltd. West Sussex, UK), that fits data to a single site saturation curve, where the amount of ligand bound is plotted as a function of the amount free: […]
(§3) Table 1 lists KD values from analysis of fluorescence quenching with ferric or apo (parenthetic values) siderophores or porphyrins. […]

[2] = molecular target: T2, HsaSCN (human siderocalin) (Homo sapiens, UniProt P80188, Q148C); experiment: Fluorescence quenching binding to purified HsaSCN-FM sensor; details: read-out: KD, HsaSCN-FM
T2 construct: adds a 6H-tag at either the N- or C-termini of the mature proteins; 6-His (N); made in house; host or cells: E. coli BL21 (pET28), IPTG-induced; purified on Talon Superflow

[3] = molecular target: EcoFhuA (Escherichia coli, UniProt P06971); experiment: Fluorescence quenching binding to EcoFhuA-FM sensor; details: read-out: Affinity (KD) of sensor EcoFhuA; ferric complexes; Cys residue D396C, FM-labeled; NB = no binding
Protocol: as §1, §2, §3

[4] = test system: CRE/ESKAPE pathogens; experiment: Decoy sensor measurements of metal complex uptake by bacteria; type: cell-based; details: decoy sensors in TonB-deficient E. coli, 37° C., strains grown in iron-deficient MOPS
Source text: Fluorescence spectroscopic uptake measurements. We employed FD sensors to monitor TonB-dependent uptake of various siderophores by bacterial pathogens. In the fluorescence spectroscopic uptake studies E. coli OKN13 (ΔtonB, ΔfepA) or OKN1359 (ΔtonB, Δfiu, ΔfepA, Δcir) were host strains for pITS23 derivatives carrying single Cys mutants of an LGP of interest. The FLGP were decoy sensors that monitored ferric siderophore uptake by test strains. For each assay we used 10^7 sensor cells (e.g., OKN13/pFepA-FM (53)) in a 2 mL quartz cuvette containing PBS+0.2% glucose at 37° C. After recording fluorescence intensity for 100 seconds, we added an iron complex (e.g., FeEnt) at a final concentration of ˜10 nM. After incubating the sample for 100 seconds, during which time fluorescence was quenched (e.g., ˜60% quenching for EcoFepA_A698C-FM), we added 0.5-2×10^7 cells of the test strain (E. coli MG1655, K. pneumoniae Kp52.145, A. baumannii 17978, P. aeruginosa PA01, E. cloacae) and monitored the time-course of fluorescence emissions at 520 nm for 15-40 minutes, with stirring.

[5] = molecular target: AbaBauA (Acinetobacter baumannii, UniProt Q76HJ9, S407C); experiment: Fluorescence quenching binding to AbaBauA-FM sensor; details: read-out: Affinity (KD) of sensor AbaBauA; ferric complexes; Cys residue S385C, FM-labeled; NB = no binding
Protocol: (§4) Fluorescence modifications. For modifications with maleimide fluorophores, we inoculated E. coli strains OKN3, OKN13, OKN359 or OKN1359, harboring plasmids that encoded a Cys mutant LGP, from frozen stocks into LB, grew them overnight and sub-cultured at 1% into iron-deficient MOPS minimal media, with shaking (200 rpm) at 37° C. for 10-12 h, until late exponential phase. After collecting the cells by centrifugation at 7500×g for 15 min, and washing with 50 mM NaHPO4, pH 6.7, we labeled the Cys-mutant LGP with 5 μM FM in 50 mM NaHPO4, pH 6.7 for 15 min at 37° C. FM. We terminated the labeling reactions with 100 μM β-mercaptoethanol. […] After electrophoresis, we first visualized the fluorescence labeling on a Typhoon 8600 Biomolecular Scanner (GE/Amersham), and then stained the gels with Coomassie blue R (153).
(§5) Fluorescence spectroscopic binding determinations. We observed fluorophore-labeled cells in an SLM AMINCO 8100 fluorescence spectrometer, upgraded with an OLIS operating system and software (OLIS SpectralWorks, OLIS Inc., Bogart, GA), to control its shutters, polarizers and data collection. We also utilized an OLIS Clarity fluorescence spectrometer for fluorescence assays. […] We performed each measurement in triplicate and calculated the mean value of F/F0 at each ligand concentration. […]

[6] = molecular target: AbaPiuA (Acinetobacter baumannii, UniProt D0CAH3, S724C); experiment: Fluorescence quenching binding to AbaPiuA-FM sensor
Protocol: as §1, with “In the latter case, after thawing the labeled cells we pelleted them by centrifugation in a microfuge, washed them once with and re-suspended them in PBS containing 0.2% glucose. Lastly, for evaluation of protein expression or the extent of FM-labeling we solubilized aliquots of the cell suspensions with sample buffer, and subjected them to SDS-PAGE.” left out
as §2, with “concentration.” for “concentration. We plotted 1−F/F0 vs [ligand] and analyzed the data by the 1-site binding model of Grafit 6.0.12 (Erithacus Ltd. West Sussex, UK), that fits data to a single site saturation curve, where the amount of ligand bound is plotted as a function of the amount free:”
as §3

[7] = molecular target: T3, EcoFiu (Escherichia coli, UniProt P75780, A694C); experiment: biochemical; type: binding
T3 construct: expressed in transfected cells; host or cells: E. coli OKN3/OKN13/OKN359/OKN1359 carrying a pITS23 derivative
Protocol: as §1
Fluorescence spectroscopic binding determinations. We observed fluorophore-labeled cells in an SLM AMINCO 8100 fluorescence spectrometer, upgraded with an OLIS operating system and software (OLIS SpectralWorks, OLIS Inc., Bogart, GA), to control its shutters, polarizers and data collection. We also utilized an OLIS Clarity fluorescence spectrometer for fluorescence assays. For binding determinations we deposited 2.5×10^7 labeled cells in a quartz cuvette (final volume, 2 mL) with stirring at 37° C., measured the initial fluorescence (F0), and then added increasing concentrations of an iron complex while monitoring the quenching of fluorescence emissions (F) at 520 nm. We performed each measurement in triplicate and calculated the mean value of F/F0 at each ligand concentration. We plotted 1−F/F0 vs [ligand] and analyzed the data by the 1-site binding model of Grafit 6.0.12 (Erithacus Ltd. West Sussex, UK), that fits data to a single site saturation curve, where the amount of ligand bound is plotted as a function of the amount free:
These plots yielded KD values for each of the receptor-ligand interactions, with associated standard errors.
Table 1 lists KD values from analysis of fluorescence quenching with ferric or apo (parenthetic values) siderophores or porphyrins. For each determination, we measured the extent of fluorescence quenching of an FLGP, when exposed to sequentially increasing concentrations of the listed metal complexes, as plotted in FIGS. 2-4. We performed each experiment 2 or 3 times. The tabulated KD values are from single, representative experiments, in which we collected each data point in triplicate, plotted F/F0 vs [ligand] for each quenching titration, and fitted the curves to a single site binding model using Grafit 6.012 (Erithacus Ltd, […], UK).

[8] = molecular target: T4, PaeFpvA (Pseudomonas aeruginosa, UniProt P48632, T660C); experiment: Fluorescence quenching binding to PaeFpvA-FM sensor; details: secondary ligands
T4 construct: expressed in transfected cells; host or cells: E. coli OKN3/OKN13/OKN359/OKN1359 carrying a pITS23 derivative
Protocol: as §4, §5

[9] = molecular target: KpnFepA2380; experiment: Fluorescence quenching binding to KpnFepA2380-FM sensor; design: species or system Klebsiella pneumoniae; details: ferric complexes; Cys residue T255C, FM-labeled; NB = no binding; read-out: Affinity (KD) of sensor KpnFepA 2380
Protocol: as §4, §5

CC(=O)N(O)CCCC[C@H](NC(=O)CC(O)(CC(=O)N[C@@H](CCCCN(O)C(C)=O)C(=O)O)C(=O)O)C(=O)O [Abn, aerobactin]
pKd [1]: 5.85

CC(=O)N(O)CCC[C@@H]1NC(=O)CNC(=O)CNC(=O)CNC(=O)[C@H](CCCN(O)C(C)=O)NC(=O)[C@H](CCCN(O)C(C)=O)NC1=O.[Fe+3] [Fc, ferrichrome] (cyclo(GGG[Orn(N5-OH,N5-Ac)][Orn(N5-OH,N5-Ac)][Orn(N5-OH,N5-Ac)]))
pKd [2]: 6.96
pKd [3]: 8.52
Binding by IutA [1]: did not measurably bind

C/C(=C\C(=O)N(O)CCC[C@@H]1NC(=O)CNC(=O)[C@H](CO)NC(=O)[C@H](CO)NC(=O)[C@H](CCCN(O)C(=O)/C=C(\C)CC(=O)O)NC(=O)[C@H](CCCN(O)C(=O)/C=C(\C)CC(=O)O)NC1=O)CC(=O)O.[Fe+3] [FcA]
pKd [3]: 7.22
Binding by IutA [1]: did not measurably bind

CC(=O)N([O-])CCCC[C@H](NC(=O)CC(O)(CC(=O)N[C@@H](CCCCN([O-])C(C)=O)C(=O)O)C(=O)[O-])C(=O)O.[Fe+3] [FeAbn, ferric aerobactin]
TonB-dependent uptake by test strains [4]: uptake of FeAbn by all the strains except A. baumannii

O=C([C@@H]1CSC(c2cccc(O)c2O)=N1)N(O)CCc1c[nH]cn1.[Fe+3] [FeAgn]
pKd [2]: 6.80
pKd [5]: 5.96

O=C(N[C@@H](CO)C(=O)O)c1cccc(O)c1O.[Fe+3] [FeDHBS]
Binding by AbaPiuA [6]: did not bind

O=C(O)c1cccc(O)c1O.[Fe+3] [FeDHB]
Binding by EcoFiu [7]: did not bind
Binding by PaeFpvA [8]: weakly bound
pKd [9]: 4.66
